Reference: ChEMBL document CHEMBL4340578, “11-Aminostrychnine and N-(Strychnine-11-yl)propionamide: Synthesis, Configuration, and Pharmacological Evaluation at Glycine Receptors” (J Nat Prod, 2019)
pIC50, pKi: −log10 of the molar value.

Assays:
[1] = biological target: T1, Glycine receptor subunit alpha-1 (Homo sapiens, UniProt P23415); assay: Displacement of [3H]strychnine from human glycine receptor subunit alpha-1 expressed in HEK293 cell membranes
T1 sequence (P23415 whole entry): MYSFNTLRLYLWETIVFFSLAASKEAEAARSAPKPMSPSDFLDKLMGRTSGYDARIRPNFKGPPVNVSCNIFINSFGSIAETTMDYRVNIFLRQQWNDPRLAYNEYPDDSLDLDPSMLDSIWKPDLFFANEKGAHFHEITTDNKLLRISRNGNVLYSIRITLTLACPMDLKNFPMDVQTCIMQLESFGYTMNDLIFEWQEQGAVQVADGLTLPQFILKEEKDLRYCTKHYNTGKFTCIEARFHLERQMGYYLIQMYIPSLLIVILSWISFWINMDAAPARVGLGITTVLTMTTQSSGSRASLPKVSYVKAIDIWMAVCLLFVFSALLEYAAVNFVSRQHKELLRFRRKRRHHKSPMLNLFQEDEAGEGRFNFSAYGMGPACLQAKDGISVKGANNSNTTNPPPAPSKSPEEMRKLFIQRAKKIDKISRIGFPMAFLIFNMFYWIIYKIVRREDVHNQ

[2] = biological target: T1, Glycine receptor subunit alpha-1; assay: Antagonist activity at human glycine receptor subunit alpha-1 expressed in human tsA201 cells assessed as reduction in glycine-induced response by fluorescence-based FLIPR membrane potential blue assay; format: cell-based
[3] = biological target: T2, Glycine receptor (alpha-1/beta) (Homo sapiens, UniProt P23415+P48167); assay: Antagonist activity at human glycine receptor subunit alpha-1beta expressed in human tsA201 cells assessed as reduction in glycine-induced response by fluorescence-based FLIPR membrane potential blue assay; format: cell-based
[4] = biological target: T1, Glycine receptor subunit alpha-1; assay: Antagonist activity at human glycine receptor subunit alpha-1 expressed in HEK293 cells assessed as reduction in glycine-induced whole cell currents by patch-clamp technique; format: cell-based
[5] = biological target: T2, Glycine receptor (alpha-1/beta); assay: Antagonist activity at human glycine receptor subunit alpha-1beta expressed in HEK293 cells assessed as reduction in glycine-induced whole cell currents by patch-clamp technique; format: cell-based

T2 sequence (P48167 whole entry, one chain of several): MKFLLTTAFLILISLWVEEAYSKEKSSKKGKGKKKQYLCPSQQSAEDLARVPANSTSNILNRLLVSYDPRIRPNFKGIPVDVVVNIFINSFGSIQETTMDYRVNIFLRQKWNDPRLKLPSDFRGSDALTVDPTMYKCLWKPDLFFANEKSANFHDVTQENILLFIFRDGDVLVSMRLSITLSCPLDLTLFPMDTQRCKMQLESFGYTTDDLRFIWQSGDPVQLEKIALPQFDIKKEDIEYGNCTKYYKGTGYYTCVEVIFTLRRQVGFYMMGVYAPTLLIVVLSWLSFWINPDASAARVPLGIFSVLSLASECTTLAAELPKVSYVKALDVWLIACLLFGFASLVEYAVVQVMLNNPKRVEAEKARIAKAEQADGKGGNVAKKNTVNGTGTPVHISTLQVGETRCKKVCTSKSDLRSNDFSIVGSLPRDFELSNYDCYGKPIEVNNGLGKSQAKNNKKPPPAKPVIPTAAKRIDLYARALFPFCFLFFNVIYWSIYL

| SMILES | pKi [1] | pIC50 [2] | pIC50 [3] | pIC50 [4] | pIC50 [5] |
| --- | --- | --- | --- | --- | --- |
| N[C@@H]1C(=O)N2c3ccccc3[C@@]34CCN5CC6=CCO[C@@H]1[C@@H]([C@H]23)[C@H]6C[C@H]54 | 6.13 | 6.00 | 5.11 | 6.71 |  |
| CCC(=O)N[C@@H]1C(=O)N2c3ccccc3[C@@]34CCN5CC6=CCO[C@@H]1[C@@H]([C@H]23)[C@H]6C[C@H]54 | 7.04 | 6.15 | 5.66 | 6.76 | 6.83 |
| O=C1C[C@@H]2OCC=C3CN4CC[C@]56c7ccccc7N1[C@H]5[C@H]2[C@H]3C[C@H]46 [STRYCHNINE] | 6.91 | 6.82 | 6.29 |  |  |
